Assays:
[1] = Thermostability of aqueous lipid solutions; type: physicochemical; settings: exposed to temperature below 10° C. or above 25° C.
From the text: EP-0351651 describes the use of PEG-C8/C10-glycerides as an absorption promoter for insulin. Especially for orally and buccally administered insulin. From the disclosure it appears that an increase in concentration of PEG-C8/C10-glycerides results in an increase in absorption. With respect to a nasal composition the composition described has a relatively high concentration of absorption enhancer, namely about 50% w/w. WO2003070280 (Absorption enhancing agent) describes the use of PEG-C8/C10-glycerides as absorption promoter for e.g. sumatriptan, in most preferred concentrations of 0.1-10%. Here, the function of PEG-C8/C10-glycerides should not promote absorption, since that will remove the active ingredient from the surface such as the mucosal surface, and into the systemic circulation. However, PEG-C8/C10 is able to act as a thermostabilizer for formulations containing lipids that are insoluble in water.

Corynebacteria sp. = settings: cited from earlier work
Influenza A virus = settings: cited from earlier work
Listeria monocytogenes = settings: cited from earlier work
[2] = test system: Herpes virus type 1 (HSV-1); settings: cited from earlier work
Haemophilus influenzae = settings: cited from earlier work
[3] = test system: Respiratory syncytial virus (RSV); settings: cited from earlier work
Streptococcus mutans = settings: cited from earlier work
Helicobacter pylori = settings: cited from earlier work
Campylobacter jejuni = settings: cited from earlier work
Chlamydia trachomatis = settings: cited from earlier work
Streptococci pyogenes = settings: cited from earlier work
Candida albicans (yeast) = settings: cited from earlier work
Streptococci A = settings: cited from earlier work
Streptococcus pneumoniae = settings: cited from earlier work
[4] = test system: Herpes virus type 2 (HSV-2); settings: cited from earlier work
Staphylococcus epidermis = settings: cited from earlier work
Streptococcus D = settings: cited from earlier work
Staphylococcus aureus = settings: cited from earlier work
Lactobacillus jensenii = settings: cited from earlier work
Neisseria gonorrhoeae = settings: cited from earlier work
Micrococcus sp. = settings: cited from earlier work
[5] = test system: Parainfluenza virus type 2; settings: cited from earlier work
Pseudomonas aeruginosa = settings: cited from earlier work
Nococardia asteroides = settings: cited from earlier work

For `CCCCCCCCCC(=O)OCC(O)CO` (stereo not shown) [monocaprin], the “precipitation in aqueous formulations” value [1] is listed as “will easily precipitate”, the effectiveness against microbe (Corynebacteria sp.) is listed as “effective” and the effectiveness against virus (Influenza A virus) is listed as “effective”. The effectiveness against microbe (Listeria monocytogenes) was “effective”, the effectiveness against virus [2] was “effective” and the bactericidal effect (Haemophilus influenzae) was “bacteriocid”. For the same compound, the effectiveness against virus [3] was “effective”, the effectiveness against microbe (Streptococcus mutans) was “effective” and the effectiveness against microbe (Helicobacter pylori) was “effective”. For the same compound, the effectiveness against microbe (Campylobacter jejuni) was “effective”, the effectiveness against microbe (Chlamydia trachomatis) was “effective” and the bactericidal effect (Streptococci pyogenes) was “bacteriocid”. For the same compound, the effectiveness against microbe (Candida albicans (yeast)) was “effective”, the bactericidal effect (Streptococci A) was “bacteriocid” and the effectiveness against microbe (Streptococcus pneumoniae) was “effective”. For the same compound, the effectiveness against virus [4] was “effective”, the bactericidal effect (Staphylococcus epidermis) was “bacteriocid” and the effectiveness against microbe (Streptococcus D) was “effective”. For the same compound, the bactericidal effect (Staphylococcus aureus) was “bacteriocid”, the effectiveness against microbe (Lactobacillus jensenii) was “effective” and the effectiveness against microbe (Neisseria gonorrhoeae) was “effective”. The effectiveness against microbe (Micrococcus sp.) was “effective”, the effectiveness against virus [5] was “effective” and the effectiveness against microbe (Pseudomonas aeruginosa) was “effective”. For the same compound, the effectiveness against microbe (Nococardia asteroides) was “effective”.

From patent publication US11337949B2, “Thermostable formulation of biologically active substances” (CAPRETTO EHF., priority 2016, dated 2022)
